Measurements published in patent publication US8119805B2, “Substituted disulfonamide compounds” (Gruenenthal GmbH, priority 2008, dated 2012).
Where a name gives a salt, the structure may show the parent alone.

Assays:
[1] = target: T1, B1R receptor of the rat (rB1R) (Rattus norvegicus, UniProt P97583); assay: Functional investigation on the bradykinin 1 receptor (B1R), FLIPR Ca2+ assay, rB1R cells; type: cell-based; details: test substance 10 μM; CHO K1 cells transfected with rat B1R gene; Fluo-4 Ca2+ signal; agonist Des-Arg9-bradykinin at EC80; % of maximum achievable inhibition; read-out: B1R antagonism, rat [10 μM] % inhibition
T1 construct: expressed in transfected cells; host or cells: CHO K1 cells
T1 sequence (P97583 1-337): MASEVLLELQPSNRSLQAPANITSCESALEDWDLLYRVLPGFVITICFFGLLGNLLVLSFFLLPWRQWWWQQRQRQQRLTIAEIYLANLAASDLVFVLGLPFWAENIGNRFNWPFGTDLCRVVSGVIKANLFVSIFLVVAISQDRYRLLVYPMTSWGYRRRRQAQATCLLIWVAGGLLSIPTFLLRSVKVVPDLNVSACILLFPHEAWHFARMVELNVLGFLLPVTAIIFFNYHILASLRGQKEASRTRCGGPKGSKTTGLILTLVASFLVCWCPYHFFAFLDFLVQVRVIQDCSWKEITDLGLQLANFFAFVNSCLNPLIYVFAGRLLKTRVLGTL
Summary of the method: (§1)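 CHO K1 cells stably expressing human or rat B1R, Fluo-4 loaded, read by FLIPR (λex 488, λem 540 nm). Test compound (10 μM) first gave % activation against Lys-Des-[MUT]-bradykinin ≥50 nM (hB1R) or Des-[MUT]-bradykinin 10 μM (rB1R). After 10–20 min, agonist at EC80 was added; % inhibition or IC50 from concentration series, n=2–3, N≥2.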

[2] = target: T2, human B1R receptor (hB1R) (Homo sapiens, UniProt P46663); assay: Functional investigation on the bradykinin 1 receptor (B1R), FLIPR Ca2+ assay, hB1R cells; type: cell-based; details: test substance 10 μM; CHO K1 cells transfected with human B1R gene; Fluo-4 Ca2+ signal; agonist Lys-Des-Arg9-bradykinin at EC80; % of maximum achievable inhibition; read-out: B1R antagonism, human [10 μM] % inhibition
T2 construct: expressed in transfected cells; host or cells: CHO K1 cells
T2 sequence (P46663 1-353): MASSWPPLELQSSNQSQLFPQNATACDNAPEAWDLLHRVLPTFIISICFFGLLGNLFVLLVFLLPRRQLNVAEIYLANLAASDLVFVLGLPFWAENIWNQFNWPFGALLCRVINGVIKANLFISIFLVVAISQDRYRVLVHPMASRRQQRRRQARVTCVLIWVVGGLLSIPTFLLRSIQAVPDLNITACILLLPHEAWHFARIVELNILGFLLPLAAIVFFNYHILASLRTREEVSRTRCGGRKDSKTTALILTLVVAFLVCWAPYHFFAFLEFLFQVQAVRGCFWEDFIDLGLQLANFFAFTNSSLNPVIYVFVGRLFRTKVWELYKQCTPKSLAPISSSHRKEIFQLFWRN
Summary of the method: as §1

Compound | inhibition at 10 µM [1] [%] | inhibition at 10 µM [2] [%]
CN1CCC(N2CCN(S(=O)(=O)CCC[C@@H]3CCCN3S(=O)(=O)c3cccc(C(F)(F)F)c3)CC2)CC1 [Example 35, (S)-1-(1-Methylpiperidin-4-yl)-4-(3-(1-(3-(trifluoromethyl)phenylsulfonyl)pyrrolidin-2-yl)propylsulfonyl)piperazine] | 91 | 23
COc1cc(C)c(S(=O)(=O)N2CCC[C@H]2CCCS(=O)(=O)N2CC(N3[C@@H]4CC[C@H]3C[C@H](Oc3ccncc3)C4)C2)c(C)c1 [Example 80, (1R,3s,5S)-8-(1-(3-((S)-1-(4-Methoxy-2,6-ydimethylphenylsulfonyl)pyrrolidin-2-l)propylsulfonyl)azetidin-3-yl)-3-(pyridin-4-yloxy)-8-azabicyclo[3.2.1]octane] | 102 | 99
O=S(=O)(CCC[C@@H]1CCCN1S(=O)(=O)c1cccc2c(Cl)cccc12)N1CCC2(CCN(c3ccncc3)CC2)CC1 [Example 76, 3-(3-((S)-1-(5-Chloronaphthalen-1-ylsulfonyl)pyrrolidin-2-yl)propylsulfonyl)-9-(pyridin-4-yl)-3,9-diazaspiro[5.5]undecane] | 95 | 95
COc1cc(C)c(S(=O)(=O)N2CCC[C@H]2CCCS(=O)(=O)N2CCC(Oc3ccncc3)CC2)c(C)c1 [Example 47, (S)-4-(1-(3-(1-(4-Methoxy-2,6-dimethylphenylsulfonyl)pyrrolidin-2-yl)propylsulfonyl)piperidin-4-yloxy)pyridine] | 95 | 95
O=S(=O)(CCC1CCN(S(=O)(=O)c2cc(Cl)c(Cl)cc2Cl)C1)N1CCC(CCN2CCCC2)CC1 (centres unmarked) [Example 18, 4-(2-(Pyrrolidin-1-yl)ethyl)-1-(2-(1-(2,4,5-trichlorophenylsulfonyl)pyrrolidin-3-yl)ethylsulfonyl)piperidine hydrochloride] | 11 | 65
Cc1cccc(Cl)c1S(=O)(=O)N1CCC[C@H]1CCCS(=O)(=O)N1CCC2(CCN(c3ccncc3)C2)C1 (stereo partly drawn) [Example 83, 2-(3-((S)-1-(2-Chloro-6-methylphenylsulfonyl)pyrrolidin-2-yl)propylsulfonyl)-7-(pyridin-4-yl)-2,7-diazaspiro[4.4]nonane] | 104 | 99
Cc1cc(C)c(S(=O)(=O)N2CCCC2CCCCS(=O)(=O)N2CCN(C3CCN(C)CC3)CC2)c(C)c1 (centres unmarked) [Example 42, 1-(4-(1-(Mesitylsulfonyl)pyrrolidin-2-yl)butylsulfonyl)-4-(1-methylpiperidin-4-yl)piperazine dihydrochloride] | 26 | 50
COc1cc(C)c(S(=O)(=O)N2CCC[C@H]2CCCS(=O)(=O)N2CCN(C3CCN(C)CC3)CC2)c(C)c1 [Example 32, (S)-1-(3-(1-(4-Methoxy-2,6-dimethylphenylsulfonyl)pyrrolidin-2-yl)propylsulfonyl)-4-(1-methylpiperidin-4-yl)piperazine] | 99 | 105
Cc1cccc(Cl)c1S(=O)(=O)N1CCC[C@H]1CCCS(=O)(=O)N1CCC(Oc2ccncc2)CC1 [Example 46, (S)-4-(1-(3-(1-(2-Chloro-6-methylphenylsulfonyl)pyrrolidin-2-yl)propylsulfonyl)piperidin-4-yloxy)pyridine] | 99 | 80
O=S(=O)(CCC[C@@H]1CCCN1S(=O)(=O)c1ccccc1C(F)(F)F)N1[C@@H]2CC[C@H]1C[C@H](Oc1ccncc1)C2 [Example 56, (1R,3R,5S)-3-(Pyridin-4-yloxy)-8-(3-((S)-1-(2-(trifluoromethyl)phenylsulfonyl)pyrrolidin-2-yl)propylsulfonyl)-8-azabicyclo[3.2.1]octane] | 99 | 95
CN1CCC(N2CCN(S(=O)(=O)CCC[C@@H]3CCCN3S(=O)(=O)c3c(Cl)cc(Cl)cc3Cl)CC2)CC1 [Example 28, (S)-1-(1-Methylpiperidin-4-yl)-4-(3-(1-(2,4,6-trichlorophenylsulfonyl)pyrrolidin-2-yl)propylsulfonyl)piperazine] | 91 | 104
COc1ccc(S(=O)(=O)N2CCC[C@H]2CCCS(=O)(=O)N2CCC3(CCN(c4ccncc4)CC3)CC2)c2ccccc12 [Example 77, 3-(3-((S)-1-(4-Methoxynaphthalen-1-ylsulfonyl)pyrrolidin-2-yl)propylsulfonyl)-9-(pyridin-4-yl)-3,9-diazaspiro[5.5]undecane] | 97 | 81
COc1cc(C)c(S(=O)(=O)N2C[C@@H](F)C[C@H]2CCCS(=O)(=O)N2CCC(Oc3ccncc3)CC2)c(C)c1 [Example 36, 4-(1-(3-((2R,4S)-4-Fluoro-1-(4-methoxy-2,6-dimethylphenylsulfonyl)pyrrolidin-2-yl)propylsulfonyl)piperidin-4-yloxy)pyridine] | 89 | 95
O=S(=O)(CCC[C@@H]1CCCN1S(=O)(=O)c1cccc2ccccc12)N1[C@@H]2CC[C@H]1C[C@H](Oc1ccncc1)C2 [Example 58, (1R,3R,5S)-8-(3-((S)-1-(Naphthalen-1-ylsulfonyl)pyrrolidin-2-yl)propylsulfonyl)-3-(pyridin-4-yloxy)-8-azabicyclo[3.2.1]octane] | 94 | 56
COc1cc(C)c(S(=O)(=O)N2CCC(CCS(=O)(=O)N3CCC(CCN4CCCC4)CC3)C2)c(C)c1 (centres unmarked) [Example 25, 1-(2-(1-(4-Methoxy-2,6-dimethylphenylsulfonyl)pyrrolidin-3-yl)ethylsulfonyl)-4-(2-(pyrrolidin-1-yl)ethyl)piperidine hydrochloride] | 90 | 103
COc1cc(C)c(S(=O)(=O)N2CCC[C@H]2CCCS(=O)(=O)N2CCC3(CCN(c4ccncc4)C3)C2)cc1C (stereo partly drawn) [Example 84, 2-(3-((S)-1-(4-Methoxy-2,5-dimethylphenylsulfonyl)pyrrolidin-2-yl)propylsulfonyl)-7-(pyridin-4-yl)-2,7-diazaspiro[4.4]nonane] | 82 | 96
Cc1cccc(Cl)c1S(=O)(=O)N1CCCCC1CCCS(=O)(=O)N1CCC2(CCN(c3ccncc3)CC2)CC1 (centres unmarked) [Example 86, 3-(3-(1-(2-Chloro-6-methylphenylsulfonyl)piperidin-2-yl)propylsulfonyl)-9-(pyridin-4-yl)-3,9-diazaspiro[5.5]undecane] | 101 | 99
COc1cc(C)c(S(=O)(=O)N2CCC[C@H]2CCCS(=O)(=O)N2CCC3(CCN(c4ccncc4)CC3)C2)c(C)c1 [Example 85, (S)-2-(3-(1-(4-Methoxy-2,6-dimethylphenylsulfonyl)pyrrolidin-2-yl)propylsulfonyl)-8-(pyridin-4-yl)-2,8-diazaspiro[4.5]decane] | 101 | 99
Cc1cc(C)c(S(=O)(=O)N2CCCC(CCCS(=O)(=O)N3CCC(CCN4CCCC4)CC3)C2)c(C)c1 (centres unmarked) [Example 11, 1-(Mesitylsulfonyl)-3-(3-(4-(2-(pyrrolidin-1-yl)ethyl)piperidin-1-ylsulfonyl)propyl)piperidine hydrochloride] | 26 | 65
